Assay results published in patent publication US7462600B2, “Macrolides” (Pfizer Inc, priority 2004, dated 2008).
Values after ≈ are worked out from the molar mass of the structure shown. Read-outs that look alike come from different tables or passages of the source.

Tests used:
Assay type in all cases: cell-based
[1] = system: Streptococcus pneumoniae 1175; conditions: microtiter broth dilution
Method in brief: (§1)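 MIC read-out follows NCCLS M100-S14 interpretation of microtiter tray broth dilution. Test agents are prepared as DMSO stocks at 40 mg/ml.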

[2] = system: Streptococcus pneumoniae 1095; conditions: microtiter broth dilution
Method in brief: as §1

[3] = system: Streptococcus pyogenes 1079; test: MIC, microtiter broth dilution (NCCLS M100-S14), S. pyogenes 1079 (ermB)
Method in brief: as §1

[4] = system: Streptococcus pneumoniae 1016; test: MIC, microtiter broth dilution (NCCLS M100-S14), S. pneumoniae 1016 (susceptible)
Method in brief: as §1

[5] = system: Haemophilus influenzae 1218; test: MIC, microtiter broth dilution (NCCLS M100-S14), H. influenzae 1218 (susceptible)
Method in brief: as §1

[6] = S. pneumoniae 1016 (susceptible)
[7] = H. influenzae 1218 (susceptible)

Row | Structure (SMILES) | MIC S. pneumo. 1175 ([1]; Streptococcus pneumoniae 1175) [µg/mL] | MIC S. pneumo. 1095 ([2]; Streptococcus pneumoniae 1095) [µg/mL] | MIC S. pyogenes 1079 ([3]; Streptococcus pyogenes 1079) [µg/mL] | MIC S. pneumo. 1016 ([4]; Streptococcus pneumoniae 1016) [µg/mL] | MIC H. influenzae 1218 ([5]; Haemophilus influenzae 1218) [µg/mL] | MIC S. pneumo. 1175 ([1]; S. pneumoniae 1175 (mefA)) [µg/mL] | MIC S. pneumo. 1095 ([2]; S. pneumoniae 1095 (ermB)) [µg/mL] | MIC S. pyogenes 1079 ([3]; S. pyogenes 1079 (ermB)) [µg/mL] | MIC S. pneumo. 1016 [4, 6] [µg/mL] | MIC H. influenzae 1218 [5, 7] [µg/mL]
1 | CCC1OC(=O)C(C)C(=O)C(C)C(OC2OC(C)CC(N(C)C)C2O)C(C)(OC)CC(C)C(=O)C(C)C2N(C3CN(Cc4c[nH]nc4-c4ccc(F)cc4)C3)C(=O)OC12C (stereo not drawn) [Example 1.42, (1H-3-[4-fluorophenyl]-pyrazol-4-yl)methyl] | 0.25 (≈ 0.297 µM) | <0.06 | >64.00 | <0.06 | 2 (≈ 2.38 µM) |  |  |  |  | 
2 | CCC1OC(=O)C(C)C(=O)C(C)C(OC2OC(C)CC(N(C)C)C2O)C(C)(OC)CC(C)C(=O)C(C)C2N(CC3CCCN3C(=O)c3ccc4nccnc4c3)C(=O)OC12C.O=CO (stereo not drawn) [10.12] |  |  |  |  |  | 0.12 | <0.06 | 32 | <0.06 | 2
3 | CCC1OC(=O)C(C)C(=O)C(C)C(OC2OC(C)CC(N(C)C)C2O)C(C)(OC)CC(C)C(=O)C(C)C2N(C3CN(Cc4c(OC)cnc5ncccc45)C3)C(=O)OC12C (stereo not drawn) [Example 1.72, 3-descladinosyl-11,12-dideoxy-6-O-methyl-3-oxo-12,11-(oxycarbonyl-(1-(3-methoxy-1,8-naphthyridine-4-methyl)-azetidin-3-yl)-imino)-erythromycin A] | <0.063 | <0.063 | <0.063 | <0.063 | 1 (≈ 1.19 µM) |  |  |  |  | 
4 | CCC1OC(=O)C(C)C(=O)C(C)C(OC2OC(C)CC(N(C)C)C2O)C(C)(OC)CC(C)C(=O)C(C)C2N(CC3CN(C(=O)c4ccc5cccnc5n4)C3)C(=O)OC12C.O=CO (stereo not drawn) [4.40] | 0.5 | 8 | >64.00 | <0.06 | 4 |  |  |  |  | 
5 | CCC1OC(=O)C(C)C(=O)C(C)C(OC2OC(C)CC(N(C)C)C2O)C(C)(OC)CC(C)C(=O)C(C)C2N(CC3CN(Cc4cnn5ccccc45)C3)C(=O)OC12C.O=CO (stereo not drawn) [4.42] | <0.06 | 0.5 | >64.00 | <0.06 | 0.12 |  |  |  |  | 
6 | CCc1noc(-c2cccc(CN3CC(N4C(=O)OC5(C)C(CC)OC(=O)C(C)C(=O)C(C)C(OC6OC(C)CC(N(C)C)C6O)C(C)(OC)CC(C)C(=O)C(C)C45)C3)c2)n1 (stereo not drawn) [Example 1.44, 3-(3-ethyl-[1,2,4]oxadiazol-5-yl)benzyl] | 0.5 (≈ 0.585 µM) | <0.06 | >64.00 | <0.06 | 16 (≈ 18.7 µM) |  |  |  |  | 
7 | CCC1OC(=O)C(C)C(=O)C(C)C(OC2OC(C)CC(N(C)C)C2O)C(C)(OC)CC(C)C(=O)C(C)C2N(CC3CCN(C(=O)c4cc5ccccn5n4)C3)C(=O)OC12C (stereo not drawn) [13.16] |  |  |  |  |  | 1 (≈ 1.19 µM) | >64.00 | >64.00 | <0.06 | 16 (≈ 19 µM)
8 | CCC1OC(=O)C(C)C(=O)C(C)C(OC2OC(C)CC(N(C)C)C2O)C(C)(OC)CC(C)C(=O)C(C)C2N(C3CN(S(=O)(=O)c4ccc5oc(=O)[nH]c5c4)C3)C(=O)OC12C (stereo not drawn) [Example 3.22, 3-descladinosyl-11,12-dideoxy-6-O-methyl-3-oxo-12,11-(oxycarbonyl-(1-(2,3-dihydro-2-oxobenzo[d]oxazole-5-sulfonyl)-azetidin-3-yl)-imino)-erythromycin A] | 0.5 (≈ 0.578 µM) | 4 (≈ 4.62 µM) | 1 (≈ 1.16 µM) | <0.06 | 0.25 (≈ 0.289 µM) |  |  |  |  | 
9 | CCC1OC(=O)C(C)C(=O)C(C)C(OC2OC(C)CC(N(C)C)C2O)C(C)(OC)CC(C)C(=O)C(C)C2N(C3CN(S(=O)(=O)c4ccc5ccccc5c4)C3)C(=O)OC12C (stereo not drawn) [Example 3.91, 3-descladinosyl-11,12-dideoxy-4-O-methyl-3-oxo-12,11-(oxycarbonyl-(1-(naphthalene-2-sulfonyl)-azetidin-3-yl)-imino)-erythromycin A] | <0.06 | <0.06 | 4 (≈ 4.66 µM) | <0.06 | 0.12 (≈ 0.14 µM) |  |  |  |  | 
10 | CCC1OC(=O)C(C)C(=O)C(C)C(OC2OC(C)CC(N(C)C)C2O)C(C)(OC)CC(C)C(=O)C(C)C2N(CC3CCCN3C(=O)c3cccc4ccncc34)C(=O)OC12C (stereo not drawn) [10.37] |  |  |  |  |  | <0.06 | <0.06 | 16 (≈ 18.8 µM) | <0.06 | 0.5 (≈ 0.588 µM)
11 | CCC1OC(=O)C(C)C(=O)C(C)C(OC2OC(C)CC(N(C)C)C2O)C(C)(OC)CC(C)C(=O)C(C)C2N(C3CN(S(=O)(=O)c4ccc(-c5nncs5)cc4)C3)C(=O)OC12C (stereo not drawn) [Example 3.76, 3-descladinosyl-11,12-dideoxy-6-O-methyl-3-oxo-12,11-(oxycarbonyl-(1-(4-(1,3,4-thiadiazol-2-yl)benzenesulfonyl)-azetidin-3-yl)-imino)-erythromycin A] | <0.06 | <0.06 | 0.12 (≈ 0.135 µM) | <0.06 | 0.5 (≈ 0.56 µM) |  |  |  |  | 
12 | CCC1OC(=O)C(C)C(=O)C(C)C(OC2OC(C)CC(N(C)C)C2O)C(C)(OC)CC(C)C(=O)C(C)C2N(C3CN(S(=O)(=O)c4cccc(-c5nnco5)c4)C3)C(=O)OC12C (stereo not drawn) [Example 3.62, 3-descladinosyl-11,12-dideoxy-6-O-methyl-3-oxo-12,11-(oxycarbonyl-(1-(3-(1,3,4-oxadiazol-2-yl)benzenesulfonyl)-azetidin-3-yl)-imino)erythromycin A] | 0.5 (≈ 0.571 µM) | <0.06 | 8 (≈ 9.13 µM) | <0.06 | 2 (≈ 2.28 µM) |  |  |  |  | 
13 | CCC1OC(=O)C(C)C(=O)C(C)C(OC2OC(C)CC(N(C)C)C2O)C(C)(OC)CC(C)C(=O)C(C)C2N(C3CN(S(=O)(=O)c4ccc(-n5ccnc5)cc4)C3)C(=O)OC12C (stereo not drawn) [Example 3.82, 3-descladinosyl-11,12-dideoxy-6-O-methyl-3-oxo-12,11-(oxycarbonyl-(1-(4-(1H-imidazol-1-yl)benzenesulfonyl)-azetidin-3-yl)-imino)erythromycin A] | <0.06 | <0.06 | 2 (≈ 2.29 µM) | <0.06 | 0.25 (≈ 0.286 µM) |  |  |  |  | 
14 | CCC1OC(=O)C(C)C(=O)C(C)C(OC2OC(C)CC(N(C)C)C2O)C(C)(OC)CC(C)C(=O)C(C)C2N(C3CN(S(=O)(=O)c4ccc5nn[nH]c5c4)C3)C(=O)OC12C (stereo not drawn) [Example 3.57] | 8 (≈ 9.42 µM) | <0.06 | 4 (≈ 4.71 µM) | <0.06 | 1 (≈ 1.18 µM) |  |  |  |  | 
15 | CCC1OC(=O)C(C)C(=O)C(C)C(OC2OC(C)CC(N(C)C)C2O)C(C)(OC)CC(C)C(=O)C(C)C2N(C3CN(Cc4cccc5cccnc45)C3)C(=O)OC12C (stereo not drawn) [Example 1.05, (quinolin-8-yl)methyl] | 0.12 (≈ 0.148 µM) | <0.06 | 64 (≈ 79.1 µM) | <0.06 | 0.25 (≈ 0.309 µM) |  |  |  |  | 
